Among the data in patent publication US10138222B2, “Substituted benzamides as RIPK2 inhibitors” (Boehringer Ingelheim International GmbH, priority 2016, dated 2018) are IC50 values, retold here.

Structures are written as SMILES.

Broadly, the IC50 is the concentration at which inhibition is half-maximal.

This assay deals with RIPK2 (Homo sapiens (Human), UniProt O43353). Put plainly: RIPK2 inhibition, ADP-Glo Kinase Assay. Particulars: 8His-RIPK2 FL enzyme 8 nM, ATP 5 μM, 15 minutes pre-incubation, 60 minutes at 37° C., luminescence. It is filed as biochemical. The method, then:
RIPK2 inhibition for compounds in Table 1 are shown in Table 3 and measured using the following method:
Materials: White, 384-well optiplates (cat.no. 6007290) were purchased from PerkinElmer. The V9103X ADP-Glo Kinase Assay Custom (including ultra-pure ATP) was purchased from Promega. 8His-RIPK2 FL was prepared in-house. All other materials were of highest grade commercially available.
Method: In a 384-well plate, test compound diluted in assay buffer (1% DMSO final) is mixed with 8His-RIPK2 FL enzyme (final concentration of 8 nM). After 15 minutes of pre-incubation at RT, ATP dissolved in assay buffer is added (final concentration 5 μM). The mixture is incubated for 60 minutes at 37° C. in a humidified incubator. Then, ADP Glo Reagent is added, followed by a 40 minute incubation at rt. Finally, Kinase Detection Reagent is added and the entire mixture is incubated for 40 min at RT. The luminescence signal is measured with an Envision reader to determine the amount of ADP produced. Assay buffer: 25 mM HEPES (4-(2-hydroxyethyl)-1-piperazinethanesulfonic acid), 0.1% BSA (bovine serum albumin), 10 mM MgCl2, 5 mM MnCl2, 50 mM KCl, 0.01% CHAPS (3-[(3-cholamidopropyl)dimethylammonio]-1-propanesulfonate), 10 μM Na3VO4, 1 mM DTT (dithiothreitol), pH 7.5 All plates contain wells with vehicle controls instead of compound (1% DMSO) as reference for the high signal (100% CTL (100% of control), high signal), and wells without enzyme as reference for low signal (0% CTL, low signal). The luminescent signal generated is proportional to the ADP produced and is correlated with enzyme activity. The analysis of the data is performed by the calculation of the percentage of ADP production in the presence of the test compound and RIPK2 as compared to the ADP production in the presence of RIPK2 plus 50 μM Gefitinib. (RLU (relative luminescence units) (sample)−RLU(low control))*100/(RLU(high value)−RLU(low control)) [RLU=relative luminescence units].
Background: In ADP-Glo the light output rises with the ADP produced.

Sequence of RIPK2 (O43353 whole entry): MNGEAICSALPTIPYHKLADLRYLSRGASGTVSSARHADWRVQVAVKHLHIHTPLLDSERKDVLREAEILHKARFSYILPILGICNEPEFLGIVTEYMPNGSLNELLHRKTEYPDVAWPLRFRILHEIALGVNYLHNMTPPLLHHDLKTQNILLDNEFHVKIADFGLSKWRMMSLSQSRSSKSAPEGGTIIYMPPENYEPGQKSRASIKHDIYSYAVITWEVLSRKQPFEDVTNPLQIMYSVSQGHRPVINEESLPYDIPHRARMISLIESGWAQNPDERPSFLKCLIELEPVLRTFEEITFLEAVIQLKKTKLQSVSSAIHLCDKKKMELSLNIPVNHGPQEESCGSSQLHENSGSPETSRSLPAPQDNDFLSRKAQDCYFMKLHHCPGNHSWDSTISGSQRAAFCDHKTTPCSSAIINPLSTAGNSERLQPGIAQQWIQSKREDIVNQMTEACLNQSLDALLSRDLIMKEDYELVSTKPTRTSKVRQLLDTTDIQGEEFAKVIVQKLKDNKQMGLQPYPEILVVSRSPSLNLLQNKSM

As for `Cc1ccc(C(=O)NC2CC2)cc1-c1cnn(-c2cncc(C(C)N3CCCCS3(=O)=O)c2)c1` (stereo not drawn) [Example 136, N-cyclopropyl-3-(1-{5-[1-(1,1-dioxo-1λ^6,2-thiazinan-2-yl)ethyl]pyridin-3-yl}-1H-pyrazol-4-yl)-4-methyl-benzamide], 43 nM corresponded to half-maximal inhibition (IC50).
Regarding `Cc1cc(F)c(C(=O)NC2CC2)cc1-c1cnn(-c2cncc(NC3CCN(C4COC4)CC3)c2)c1` [Example 68, N-cyclopropyl-2-fluoro-4-methyl-5-[1-(5-{[1-(oxetan-3-yl)piperidin-4-yl]amino}pyridin-3-yl)-1H-pyrazol-4-yl]benzamide], the IC50 was 1.1 nM.
The figure for `Cc1ccc(C(=O)NC2CC2)cc1-c1cnn(-c2cncc(NC(=O)CC(C)C)c2)c1` [Example 114, N-cyclopropyl-4-methyl-3-{1-[5-(3-methylbutanamido)pyridin-3-yl]-1H-pyrazol-4-yl}benzamide] is 2.7 nM; for `Cc1ccc(C(=O)NC2CC2)cc1-c1cnn(-c2cncc(OCC3CCOCC3)c2)c1` [Example 147, N-cyclopropyl-4-methyl-3-{1-[5-(oxan-4-ylmethoxy)pyridin-3-yl]-1H-pyrazol-4-yl}benzamide] it is 8.1 nM; for `Cc1cc(F)c(C(=O)NC2CC2)cc1-c1cnn(-c2cncc(C3CC3)c2)c1` [Example 105, N-cyclopropyl-5-[1-(5-cyclopropyl-pyridin-3-yl)-1H-pyrazol-4-yl]-2-fluoro-4-methylbenzamide] it is 1 nM.
For the compound `COc1cncc(-n2cc(-c3cc(C(=O)NC4CC4)ccc3C)cn2)c1` [Example 28, N-cyclopropyl-3-[1-(5-methoxy-pyridin-3-yl)-1H-pyrazol-4-yl]-4-methylbenzamide], the IC50 is 15 nM.
The figure for `Cc1cc(F)c(C(=O)NC2CC2)cc1-c1cnn(-c2cncc(NC3CCN(C)CC3)c2)c1` [Example 77, N-cyclopropyl-2-fluoro-4-methyl-5-(1-{5-[(1-methylpiperidin-4-yl)amino]pyridin-3-yl}-1H-pyrazol-4-yl) benzamide] is 1.1 nM.
In turn, `Cc1ccc(C(=O)NC2CC2)cc1-c1cn(-c2cncc(NC3CCN(C4COC4)CC3)c2)cn1` [Example 79, N-cyclopropyl-4-methyl-3-[1-(5-{[1-(oxetan-3-yl)piperidin-4-yl]amino}pyridin-3-yl)-1H-imidazol-4-yl] benzamide] gave an IC50 of 1.4 nM.
With `COc1cncc(-n2cnc(-c3cc(C(=O)NC4CC4)ccc3Cl)c2)c1` [Example 54, 4-chloro-N-cyclopropyl-3-[1-(5-methoxypyridin-3-yl)-1H-imidazol-4-yl]benzamide], the IC50 came out at 41 nM.
Then `COc1cncc(-n2cnc(-c3cc(C(=O)NC4CC4)ccc3C)c2)c1` [Example 53, N-cyclopropyl-3-[1-(5-methoxypyridin-3-yl)-1H-imidazol-4-yl]-4-methyl-benzamide], with 7.6 nM.
Then `Cc1ccc(C(=O)NC2CC2)cc1-c1cnn(-c2cncc(CC#N)c2)c1` [Example 52, 3-{1-[5-(cyanomethyl)pyridin-3-yl]-1H-pyrazol-4-yl}-N-cyclopropyl-4-methylbenzamide], with 56 nM; and `O=C(NC1CC1)c1cc(-c2cnn(-c3cccnc3)c2)c(Cl)cc1F` [Example 32, 4-chloro-N-cyclopropyl-2-fluoro-5-[1-(pyridin-3-yl)-1H-pyrazol-4-yl] benzamide], with 14 nM; and `COCC(=O)Nc1cncc(-n2cc(-c3cc(C(=O)NC4CC4)ccc3C)cn2)c1` [Example 112, N-cyclopropyl-3-{1-[5-(2-methoxyacetamido)pyridin-3-yl]-1H-pyrazol-4-yl}-4-methylbenzamide], with 7.8 nM.
The figure for `COc1cncc(-n2cc(-c3cc(C(=O)NC4CC4)c(F)cc3C)cn2)c1` [Example 25, N-cyclopropyl-2-fluoro-5-[1-(5-methoxypyridin-3-yl)-1H-pyrazol-4-yl]-4-methylbenzamide] is 3.7 nM.
`COc1cncc(-n2cc(-c3cc(C(=O)NC4CC4)ccc3C)cn2)n1` [Example 127, N-cyclopropyl-3-[1-(6-methoxy-pyrazin-2-yl)-1H-pyrazol-4-yl]-4-methylbenzamide] came in with an IC50 of 86 nM.
In turn, `Cc1ccc(C(=O)NC2CC2)cc1-c1cnn(-c2cncc([C@H]3CCC(=O)N3C)c2)c1` [Example 125, N-cyclopropyl-4-methyl-3-(1-{5-[(2R)-1-methyl-5-oxopyrrolidin-2-yl]pyridin-3-yl}-1H-pyrazol-4-yl)benzamide] registered a half-maximal inhibitory concentration (IC50) of 130 nM.
Compound `Cc1ccc(C(=O)NC2CC2)cc1-c1cnn(-c2cncc(NC(C)C3CCOC3)c2)c1` (stereo not drawn) [Example 67, N-cyclopropyl-4-methyl-3-[1-(5-{[1-(oxolan-3-yl)ethyl]amino}pyridin-3-yl)-1H-pyrazol-4-yl]benzamide] displayed an IC50 of 1.6 nM.
As to `Cc1ccc(C(=O)NC2CC2)cc1-c1cnn(-c2cncc(NC3CCN(C4CCOC4C)CC3)c2)c1` (stereo not drawn) [Example 159, N-cyclopropyl-4-methyl-3-[1-(5-{[1-(2-methyloxolan-3-yl)piperidin-4-yl]amino}pyridin-3-yl)-1H-pyrazol-4-yl]benzamide], half-maximal inhibition (IC50) required 1.8 nM.
The figure for `Cc1ccc(C(=O)NC2CC2)cc1-c1cnn(-c2cncc(NC3CCN(C(C)CO)CC3)c2)c1` (stereo not drawn) [Example 157, N-cyclopropyl-3-[1-(5-{[1-(1-hydroxypropan-2-yl)piperidin-4-yl]amino}pyridin-3-yl)-1H-pyrazol-4-yl]-4-methylbenzamide] is 1.9 nM.
`Cc1ccc(C(=O)NC2CC2)cc1-c1cnn(-c2cncc(C3(O)CCOC3)c2)c1` (stereo not drawn) [Example 138, N-cyclopropyl-3-{1-[5-(3-hydroxy-oxolan-3-yl)pyridin-3-yl]-1H-pyrazol-4-yl}-4-methylbenzamide] had an IC50 of 25 nM.
The figure for `COCCNc1cncc(-n2cc(-c3cc(C(=O)NC4CC4)ccc3C)cn2)c1` [Example 60, N-cyclopropyl-3-(1-{5-[(2-methoxyethyl)amino]pyridin-3-yl}-1H-pyrazol-4-yl)-4-methylbenzamide] is 8.4 nM; for `Cc1ccc(C(=O)NC2CC2)cc1-c1cnn(-c2cncc(NC3CCN(C4CCOC(C)C4)CC3)c2)c1` (stereo not drawn) [Example 165, N-cyclopropyl-4-methyl-3-[1-(5-{[1-(2-methyloxan-4-yl)piperidin-4-yl]amino}pyridin-3-yl)-1H-pyrazol-4-yl]benzamide] it is 1.2 nM.
Then `CC(=O)N1CCC(N2CCC(Nc3cncc(-n4cc(-c5cc(C(=O)NC6CC6)ccc5C)cn4)c3)CC2)CC1` [Example 158, 3-[1-(5-{[1-(1-acetylpiperidin-4-yl)piperidin-4-yl]amino}pyridin-3-yl)-1H-pyrazol-4-yl]-N-cyclopropyl-4-methylbenzamide], with 1.2 nM.
The figure for `Cc1cc(F)c(C(=O)NC2CC2)cc1-c1cnn(-c2cncc(OC[C@H]3CCN(C)C3)c2)c1` [Example 172, N-Cyclopropyl-2-fluoro-4-methyl-5-{1-[5-((S)-1-methyl-pyrrolidin-3-ylmethoxy)-pyridin-3-yl]-1H-pyrazol-4-yl}-benzamide] is 1.8 nM; for `Cc1ccc(C(=O)NC2CC2)cc1-c1cnn(-c2cncc(NC3CCOCC3)c2)c1` [Example 78, N-cyclopropyl-4-methyl-3-(1-{5-[(oxan-4-yl)amino]pyridin-3-yl}-1H-pyrazol-4-yl)benzamide] it is 1.3 nM.
With `Cc1ccc(C(=O)NC2CC2)cc1-c1cnn(-c2cncc(NC(=O)C(C)C)c2)c1` [Example 113, N-cyclopropyl-4-methyl-3-{1-[5-(2-methylpropanamido)pyridin-3-yl]-1H-pyrazol-4-yl}benzamide], it took 3.5 nM to reach half-maximal inhibition (IC50).
Then `Cc1ccc(C(=O)NC2CC2)cc1-c1cnn(-c2cncc(C(C)N3CCCC3=O)c2)c1` (stereo not drawn) [Example 140, N-cyclopropyl-4-methyl-3-(1-{5-[1-(2-oxopyrrolidin-1-yl)ethyl]pyridin-3-yl}-1H-pyrazol-4-yl)benzamide], with 38 nM; and `Cc1ccc(C(=O)NC2CC2)cc1-c1cnn(-c2cncc(NC3CCN(C4CCC4)CC3)c2)c1` [Example 93, 3-(1-{5-[(1-cyclobutylpiperidin-4-yl)amino]pyridin-3-yl}-1H-pyrazol-4-yl)-N-cyclopropyl-4-methyl-benzamide], with 1.5 nM; and `Cc1cc(F)c(C(=O)NC2CC2)cc1-c1cnn(-c2cncc(N[C@@H]3CCN(C)C[C@@H]3F)c2)c1` [Example 170], with 1.8 nM.
`Cc1ccc(C(=O)NC2CC2)cc1-c1cnn(-c2cncc(NC3CCN(CC4C5COCC54)CC3)c2)c1` (stereo not drawn) [Example 167, N-cyclopropyl-4-methyl-3-(1-{5-[(1-{3-oxabicyclo[3.1.0]hexan-6-ylmethyl}piperidin-4-yl)amino]pyridin-3-yl}-1H-pyrazol-4-yl) benzamide] had an IC50 of 1 nM.
